# pIC50: −log10 of the molar value.
# Target: human recombinant KAT-II (Homo sapiens (Human), UniProt Q8N5Z0)
# Test: KAT-II inhibitory test
# Type: biochemical
# Conditions: 3.0 μmol/L kynurenine, 37° C., 1 hr, pH 8.0; kynurenic acid quantified by HPLC
# Method: The compounds described in the above-mentioned Examples were used for the KAT-II inhibitory test.
# Preparation of Human Recombinant KAT-II
# Human recombinant KAT-II was prepared as follows.
# His tag and maltose binding protein tag were added to the N-terminal of a gene encoding human KAT-II (Genbank accession number: AF481738.1), and the obtained gene was incorporated into pET32 (Merck Nihon Millipore), which is an Escherichia coli expression vector. Human recombinant KAT-II produced by BL21(DE3) Escherichia coli (Merck Nihon Millipore, 69450) transformed using the plasmid was purified using an amylose resin column (New England Biolabs, #800-21 L).
# The inhibitory action of the test compound on human recombinant KAT-II was determined by the following method.
# To a reaction mixture (45 μL) containing 3.0 μmol/L kynurenine, 10 μmol/L pyridoxal phosphate, 2.0 ng/μL human recombinant KAT-II, and 150 mmol/L tris(hydroxymethyl)aminomethane-acetate buffer (pH 8.0) was added a 10% dimethyl sulfoxide solution (5 μL) of each test compound prepared, and the mixture was reacted at 37° C. for 1 hr. After the reaction, 50% trichloroacetic acid (5 μL) was added to terminate the reaction.
# The resultant kynurenic acid was quantified as follows by high performance liquid chromatography. An enzyme reaction mixture was separated by an octadecylsilane reversed-phase column (SC-50DS, Eicom Corporation; mobile phase: 250 mmol/L zinc acetate, 50 mmol/L sodium acetate, and 5.0% acetonitrile (pH 6.2)) incubated at 30° C., and kynurenic acid was quantified using a fluorescence detector (RF-20Axs, Shimadzu Corporation) at excitation wavelength 354 nm, detection wavelength 460 nm. The analytical curve was drawn every time by an external standard method. Each test compound was tested by dual measurement at each concentration.
# Chain of human recombinant KAT-II (Q8N5Z0 30-425): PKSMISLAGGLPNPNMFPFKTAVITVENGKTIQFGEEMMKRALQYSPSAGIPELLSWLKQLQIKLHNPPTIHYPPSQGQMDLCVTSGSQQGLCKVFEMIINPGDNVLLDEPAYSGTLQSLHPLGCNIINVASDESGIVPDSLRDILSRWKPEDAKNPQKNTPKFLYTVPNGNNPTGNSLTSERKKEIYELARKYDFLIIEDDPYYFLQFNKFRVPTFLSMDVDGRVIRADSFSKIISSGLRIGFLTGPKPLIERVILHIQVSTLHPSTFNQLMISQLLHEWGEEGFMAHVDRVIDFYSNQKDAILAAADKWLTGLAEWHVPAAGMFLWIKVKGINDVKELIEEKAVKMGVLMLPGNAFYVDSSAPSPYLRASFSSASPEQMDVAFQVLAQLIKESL
row,pIC50,Compound
1,7.11,"CC(C)c1cc(=O)n2nc([C@H]3CCCN3C(=O)Oc3ccc(F)cc3)sc2n1 [Example 140, (R)-2-[5-oxo-7-(propan-2-yl)-5H-[1,3,4]thiadiazolo[3,2-a]pyrimidin-2-yl]pyrrolidine-1-carboxylic acid 4-fluorophenyl ester]"
2,6.01,"CC(C)c1cc(=O)n2nc([C@H]3CCCN3C(=O)Cc3ccccc3)sc2n1 [Example 142, 2-[(R)-1-(phenylacetyl)pyrrolidin-2-yl]-7-(propan-2-yl)-5H-[1,3,4]thiadiazolo[3,2-a]pyrimidin-5-one]"
3,5.66,"CC(C)c1cc(=O)n2nc([C@H]3CCCN3C(=O)Cc3ccc(F)cc3)sc2n1 [Example 143, 2-{(R)-1-[2-(4-fluorophenyl)acetyl]pyrrolidin-2-yl}-7-(propan-2-yl)-5H-[1,3,4]thiadiazolo[3,2-a]pyrimidin-5-one]"
4,6.14,"CC(C)c1cc(=O)n2nc([C@H]3CCCN3C(=O)OCc3ccccc3)sc2n1 [Example 144, (R)-2-[5-oxo-7-(propan-2-yl)-5H-[1,3,4]thiadiazolo[3,2-a]pyrimidin-2-yl]pyrrolidine-1-carboxylic acid benzyl ester]"
5,5.82,"CC(C)c1cc(=O)n2nc([C@H]3CCCN3C(=O)COc3ccccc3)sc2n1 [Example 145, 2-[(R)-1-(2-phenoxyacetyl)pyrrolidin-2-yl]-7-(propan-2-yl)-5H-[1,3,4]thiadiazolo[3,2-a]pyrimidin-5-one]"
6,6.33,"CC(C)c1cc(=O)n2nc([C@H]3CCCN3C(=O)NCc3ccccc3)sc2n1 [Example 157, (R)-N-benzyl-2-[5-oxo-7-(propan-2-yl)-5H-[1,3,4]thiadiazolo[3,2-a]pyrimidin-2-yl]pyrrolidine-1-carboxamide]"
7,6.77,"CC(C)c1cc(=O)n2nc([C@H]3CCCN3C(=O)NCc3ccccc3Cl)sc2n1 [Example 158, (R)-N-(2-chlorobenzyl)-2-[5-oxo-7-(propan-2-yl)-5H-[1,3,4]thiadiazolo[3,2-a]pyrimidin-2-yl]pyrrolidine-1-carboxamide]"
8,5.28,"CC(C)c1cc(=O)n2nc([C@H]3CCCN3C(=O)Nc3ccccc3)sc2n1 [Example 160, (R)-2-[5-oxo-7-(propan-2-yl)-5H-[1,3,4]thiadiazolo[3,2-a]pyrimidin-2-yl]-N-phenylpyrrolidine-1-carboxamide]"
9,6.72,"CC(C)c1cc(=O)n2nc([C@H]3CCCN3C(=O)CN3CCCc4ccccc43)sc2n1 [Example 166, 2-{(R)-1-[(3,4-dihydroquinolin-1(2H)-yl)acetyl]pyrrolidin-2-yl}-7-(propan-2-yl)-5H-[1,3,4]thiadiazolo[3,2-a]pyrimidin-5-one]"
10,7.05,"CC(C)c1cc(=O)n2nc([C@H]3CCCN3C(=O)NC3(c4ccccc4)CC3)sc2n1 [Example 167, (R)-N-(1-phenylcyclopropyl)-2-[5-oxo-7-(propan-2-yl)-5H-[1,3,4]thiadiazolo[3,2-a]pyrimidin-2-yl]pyrrolidine-1-carboxamide]"
11,6.39,"CC(C)c1cc(=O)n2nc([C@H]3CCCN3C(=O)N[C@@H]3CCc4ccccc43)sc2n1 [Example 168, (R)-N-((R)-indan-1-yl)-2-[5-oxo-7-(propan-2-yl)-5H-[1,3,4]thiadiazolo[3,2-a]pyrimidin-2-yl]pyrrolidine-1-carboxamide]"
12,6.06,"CC(C)c1cc(=O)n2nc([C@H]3CCCN3C(=O)N3CCc4ccccc43)sc2n1 [Example 170, 2-[(R)-1-(2,3-dihydro-indole-1-carbonyl)pyrrolidin-2-yl]-7-(propan-2-yl)-5H-[1,3,4]thiadiazolo[3,2-a]pyrimidin-5-one]"

# More lines, now with the values behind:
row,Compound,pIC50
1,"CCc1nc2sc([C@H]3CCCN3C(=O)Oc3ccccc3)nc2c(=O)n1Cc1ccc(OC)cc1OC [Example 111, (R)-2-[6-(2,4-dimethoxybenzyl)-5-ethyl-7-oxo-6,7-dihydro[1,3]thiazolo[5,4-d]pyrimidin-2-yl]pyrrolidine-1-carboxylic acid phenyl ester]",6.57
2,"CCc1nc2sc([C@H]3CCCN3C(=O)Oc3ccccc3)nc2c(=O)[nH]1 [Example 114, (R)-2-(5-ethyl-7-oxo-6,7-dihydro[1,3]thiazolo[5,4-d]pyrimidin-2-yl)pyrrolidine-1-carboxylic acid phenyl ester]",7.54
3,"CC1(c2nc3sc([C@H]4CCCN4C(=O)Oc4ccccc4)nc3c(=O)[nH]2)COC1 [Example 116, (R)-2-[5-(3-methyloxetan-3-yl)-7-oxo-6,7-dihydro[1,3]thiazolo[5,4-d]pyrimidin-2-yl]pyrrolidine-1-carboxylic acid phenyl ester]",7.85
4,"Cc1noc(-c2nc3sc([C@H]4CCCN4C(=O)Oc4ccccc4)nc3c(=O)[nH]2)n1 [Example 120, (R)-2-[5-(3-methyl-[1,2,4]oxadiazol-5-yl)-7-oxo-6,7-dihydro[1,3]thiazolo[5,4-d]pyrimidin-2-yl]pyrrolidine-1-carboxylic acid phenyl ester]",8.33
5,"CC(C)(F)c1nc2sc(N3CCCN3C(=O)Oc3ccccc3)nc2c(=O)[nH]1 [Example 131, 2-[5-(2-fluoropropan-2-yl)-7-oxo-6,7-dihydro[1,3]thiazolo[5,4-d]pyrimidin-2-yl]pyrazolidine-1-carboxylic acid phenyl ester]",6.96
6,"Cc1cccc(OC(=O)N2CCCN2c2nc3c(=O)[nH]c(C(C)(C)F)nc3s2)c1 [Example 132, 2-[5-(2-fluoropropan-2-yl)-7-oxo-6,7-dihydro[1,3]thiazolo[5,4-d]pyrimidin-2-yl]pyrazolidine-1-carboxylic acid 3-methylphenyl ester]",7.29
7,"CC(C)(F)c1nc2sc(N3CCCN3C(=O)Cc3ccccc3)nc2c(=O)[nH]1 [Example 133, 5-(2-fluoropropan-2-yl)-2-[2-(phenylacetyl)pyrazolidin-1-yl]-6H-[1,3]thiazolo[5,4-d]pyrimidin-7-one]",6.82
8,"Cc1cccc(CC(=O)N2CCCN2c2nc3c(=O)[nH]c(C(C)(C)F)nc3s2)c1 [Example 134, 5-(2-fluoropropan-2-yl)-2-{2-[2-(3-methylphenyl)acetyl]pyrazolidin-1-yl}-6H-[1,3]thiazolo[5,4-d]pyrimidin-7-one]",6.64
9,"CC(C)c1nc2sc([C@H]3CCCN3C(=O)Oc3ccccc3)nc2c(=O)n1C [Example 135, (R)-2-[6-methyl-7-oxo-5-(propan-2-yl)-6,7-dihydro[1,3]thiazolo[5,4-d]pyrimidin-2-yl]pyrrolidine-1-carboxylic acid phenyl ester]",7.64
10,"O=C(Oc1ccccc1)N1CCC[C@@H]1c1nc2c(=O)[nH]c(-c3ccccc3F)cc2s1 [Example 137, (R)-2-[6-(2-fluorophenyl)-4-oxo-4,5-dihydro[1,3]thiazolo[4,5-c]pyridin-2-yl]pyrrolidine-1-carboxylic acid phenyl ester]",7.16
11,"O=C(Oc1ccccc1)N1CCC[C@@H]1c1nc2c(=O)[nH]c(C(F)(F)F)cc2s1 [Example 138, (R)-2-(4-oxo-6-trifluoromethyl-4,5-dihydro[1,3]thiazolo[4,5-c]pyridin-2-yl)pyrrolidine-1-carboxylic acid phenyl ester]",6.41
12,"CCc1cc(=O)n2nc([C@H]3CCCN3C(=O)Oc3ccccc3)sc2n1 [Example 146, (R)-2-(7-ethyl-5-oxo-5H-[1,3,4]thiadiazolo[3,2-a]pyrimidin-2-yl)pyrrolidine-1-carboxylic acid phenyl ester]",6.85
13,"CCc1c(C)nc2sc([C@H]3CCCN3C(=O)Oc3ccccc3)nn2c1=O [Example 148, (R)-2-(6-ethyl-7-methyl-5-oxo-5H-[1,3,4]thiadiazolo[3,2-a]pyrimidin-2-yl)pyrrolidine-1-carboxylic acid phenyl ester]",6.64
14,"O=C(Oc1ccccc1)N1CCC[C@@H]1c1nn2c(=O)c3c(nc2s1)CCCC3 [Example 149, (R)-2-(5-oxo-6,7,8,9-tetrahydro-5H-[1,3,4]thiadiazolo[2,3-b]quinazolin-2-yl)pyrrolidine-1-carboxylic acid phenyl ester]",6.80
15,"CC(C)c1nc2sc([C@H]3CCCN3C(=O)Oc3ccccc3)nn2c(=O)c1Cl [Example 153, (R)-2-[6-chloro-5-oxo-7-(propan-2-yl)-5H-[1,3,4]thiadiazolo[3,2-a]pyrimidin-2-yl]pyrrolidine-1-carboxylic acid phenyl ester]",7.32
16,"O=C(Oc1ccccc1)N1CCC[C@@H]1c1nn2c(=O)c3cc(F)ccc3nc2s1 [Example 155, (R)-2-(7-fluoro-5-oxo-5H-[1,3,4]thiadiazolo[2,3-b]quinazolin-2-yl)pyrrolidine-1-carboxylic acid phenyl ester]",6.49
17,"Cc1nc2sc([C@H]3CCCN3C(=O)N[C@H](C)c3ccccc3)nn2c(=O)c1C [Example 171, (R)-2-(6,7-dimethyl-5-oxo-5H-[1,3,4]thiadiazolo[3,2-a]pyrimidin-2-yl)-N-((R)-1-phenylethyl)pyrrolidine-1-carboxamide]",5.74
18,"Cc1nc2sc([C@H]3CCCN3C(=O)NC(C)(C)c3ccccc3)nn2c(=O)c1C [Example 172, (R)-2-(6,7-dimethyl-5-oxo-5H-[1,3,4]thiadiazolo[3,2-a]pyrimidin-2-yl)-N-(1-methyl-1-phenylethyl)pyrrolidine-1-carboxamide]",6.08

# From patent publication US10065972B2, “Bicyclic or tricyclic heterocyclic compound” (MITSUBISHI TANABE PHARMA CORPORATION, priority 2014, dated 2018)
